Measured values as given in patent US8815872B2, “Macrocyclics pyrimidines as aurora kinase inhibitors” (Merck Patent GmbH, priority 2008, dated 2014).

Tests used:
[1] = test system: A549; assay: Cellular activity A549; assay type: cell-based; settings: Homo sapiens
Method: (§1) The susceptibility of a particular cell to treatment with the compounds according to the invention was determined by in vitro tests. Typically, a culture of the cell was combined with a compound according to the invention at various concentrations for a period of time that was sufficient to allow the active agents to induce cell death or to inhibit migration, usually between about one hour and one week. In vitro testing was carried out using cultivated cells from a biopsy sample. The viable cells remaining after the treatment then were counted.

[2] = test system: MiaPaca2; assay: Cellular activity MiaPaca2; assay type: cell-based; settings: for IC50: Homo sapiens, MIA PaCa-2
Method: as §1

[3] = target: T1, Aurora A (Homo sapiens, UniProt O14965); assay: Aurora A enzyme assay (Caliper LC3000 mobility shift); assay type: biochemical
T1 construct: N-terminal GST fusion with full length Aurora A (1-403 amino acids); purchased Carna Biosciences 05-101
T1 sequence (O14965 1-403): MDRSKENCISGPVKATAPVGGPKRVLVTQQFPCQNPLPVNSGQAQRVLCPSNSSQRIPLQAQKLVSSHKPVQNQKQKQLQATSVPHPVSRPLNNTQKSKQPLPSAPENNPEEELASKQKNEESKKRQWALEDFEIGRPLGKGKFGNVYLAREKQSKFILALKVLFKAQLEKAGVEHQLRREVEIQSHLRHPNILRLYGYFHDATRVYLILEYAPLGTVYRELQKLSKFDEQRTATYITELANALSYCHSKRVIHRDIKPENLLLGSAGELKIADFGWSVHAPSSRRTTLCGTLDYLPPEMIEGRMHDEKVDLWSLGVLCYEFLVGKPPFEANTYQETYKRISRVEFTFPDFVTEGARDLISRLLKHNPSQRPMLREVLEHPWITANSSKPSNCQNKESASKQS
Method: (§2) The Aurora and other kinase assays described here were performed on two Caliper Life Sciences systems, the LC3000 and the Desktop Profiler. These provide data on enzyme activity via measurement of the relative amounts of phosphorylated or unphosphorylated fluorescently labelled substrate peptide at the end of an enzymatic reaction. These different states of peptide are resolved by applying a potential difference across the sample. The presence of a charged phosphate group on the product (as opposed to the substrate) causes a different peptide mobility between the two peptides. This is visualized by excitation of a fluorescent label on the substrate and product peptides and represented as peaks within the analysis software.
For example, in order to measure inhibitor activity of Aurora A inhibitors in the Caliper Life Sciences LC3000, a TTP Mosquito liquid handling instrument was used to place […] of an appropriate concentration of inhibitor in 100% DMSO (for a dose response curve calculation) into each well of a 384-well plate. To this reaction components were added to a final volume of 25 μl: • 0.067 ng/μl GST-Aurora A (Carna Biosciences 05-101. N-terminal GST fusion with full length Aurora A (1-403 amino acids), accession number NP_940835.1). • 15 μM ATP (Fluka, 02055) • 1 mM DTT (Sigma, D0632) • 1 mM MgC12 (Sigma, M1028) • 1 μM substrate peptide (sequence FITC-LRRASLG-(CONH2), synthesized by Tufts Peptide Synthesis service. • 100 mM HEPES pH 7.5 (Calbiochem, 391338) • 0.015% Brij-35 (Sigma, B4184)
The reaction was incubated for 90 min at 25° C., and then stopped by the addition of 70 μl of Stop buffer (100 mM HEPES pH 7.5, 0.015% Brij-35, 10 mM EDTA (Sigma, E7889)).
The plate was read on a Caliper LC 3000 in an Off-Chip mobility shift assay format, using the following parameters for a 12-sipper chip: screening pressure −1.8 psi, upstream voltage −2700, downstream voltage −1000. These conditions cause unphosphorylated substrate and phosphorylated product peptide to resolve as separate peaks allowing direct measurement of percentage of conversion of substrate to product. The percent conversion was plotted against concentration of inhibitor to produce a sigmoidal dose response curve, from which an IC50 was calculated using XLFit for Microsoft Excel.

[4] = target: Aurora B (Homo sapiens, UniProt Q96GD4); assay: Aurora B enzyme assay (Caliper); assay type: biochemical
Sequence of Aurora B (Q96GD4 whole entry): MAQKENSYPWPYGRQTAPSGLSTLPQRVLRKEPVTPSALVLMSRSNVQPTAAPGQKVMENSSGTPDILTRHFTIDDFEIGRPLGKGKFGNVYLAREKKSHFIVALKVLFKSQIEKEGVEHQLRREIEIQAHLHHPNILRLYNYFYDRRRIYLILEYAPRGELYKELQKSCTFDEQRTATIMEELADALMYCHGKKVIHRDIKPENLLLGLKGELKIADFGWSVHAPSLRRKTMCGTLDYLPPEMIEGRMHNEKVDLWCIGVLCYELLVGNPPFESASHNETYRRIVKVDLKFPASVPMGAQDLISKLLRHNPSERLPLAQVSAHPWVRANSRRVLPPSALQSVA
Method: as §2

IC50 [1] | IC50 [2] | IC50 [3] | IC50 [4] | Cellular Activity MiaPaca2 IC50 (nM) ([2]; MiaPaca2) | Compound
1 to 6.25 µM | 1 to 6.25 µM | 0.101 to 1 µM | 0.101 to 1 µM | – | NC(=O)[C@H]1[C@H]2C[C@H]3[C@H]1Nc1nc(ncc1F)Nc1cccc(c1)CCC(=O)O[C@@H]3C2
> 6.25 µM | > 6.25 µM | 0.001 to 0.1 µM | 0.101 to 1 µM | – | NC(=O)[C@H]1[C@H]2C[C@H]3[C@H]1Nc1nc(ncc1F)Nc1ccc4c(c1)N(CC4)C(=O)CS[C@@H]3C2
1 to 6.25 µM | 1 to 6.25 µM | 0.101 to 1 µM | 0.001 to 0.1 µM | – | NC(=O)[C@H]1[C@H]2C[C@H]3[C@H]1Nc1nc(ncc1F)Nc1cccc(c1)C(O)CN[C@@H]3C2 (stereo partly shown)
– | – | 1 to 6.25 µM | – | – | CCC1CC2[C@H](O)C(O)COc3cccc(c3)Nc3ncc(F)c(n3)N[C@H]2[C@H]1C(N)=O (stereo partly shown)
0.101 to 1 µM | 0.101 to 1 µM | 0.001 to 0.1 µM | 0.001 to 0.1 µM | – | NC(=O)[C@H]1[C@H]2C[C@H]3[C@H]1Nc1nc(ncc1F)Nc1cccc(c1)[C@@H](O)CS[C@@H]3C2
– | – | 0.101 to 1 µM | 1 to 6.25 µM | – | NC(=O)[C@H]1[C@H]2C[C@H]3[C@H]1Nc1nc(ncc1F)Nc1cccc(c1)N(Cc1cccs1)C(=O)CS[C@@H]3C2
1 to 6.25 µM | – | 0.101 to 1 µM | 0.101 to 1 µM | +++= | NC(=O)[C@H]1[C@H]2C[C@H]3[C@H]1Nc1nc(ncc1F)Nc1cccc(c1)[C@H](OCCCN1CCOCC1)CS[C@@H]3C2
1 to 6.25 µM | 1 to 6.25 µM | 0.101 to 1 µM | 0.001 to 0.1 µM | – | NC(=O)[C@H]1[C@H]2C[C@H]3[C@H]1Nc1nc(ncc1F)Nc1cccc(c1)CCN[C@@H]3C2
– | – | 1 to 6.25 µM | – | – | Fc1cnc2nc1N[C@H]1CCC[C@@H](C1)OCCCCOc1cccc(c1)N2
– | – | 0.001 to 0.1 µM | – | – | NC(=O)[C@H]1[C@@H]2CC3CNC(=O)Cc4cccc(c4)Nc4ncc(F)c(n4)N[C@@H]1[C@@H]3C2 (stereo partly shown)
– | – | 0.101 to 1 µM | – | – | O[C@@H]1COc2cccc(c2)Nc2ncc(F)c(n2)NC2CCCC(C2)OC[C@@H]1O (stereo partly shown)
– | – | 0.001 to 0.1 µM | – | – | NC(=O)[C@H]1[C@H]2C[C@H]3[C@H]1Nc1nc(ncc1F)Nc1cnn(c1)CCS[C@@H]3C2
– | – | 0.101 to 1 µM | – | – | Fc1cnc2nc1NC1CCC(CC1)OC/C=C/COc1cccc(c1)N2
– | – | 0.101 to 1 µM | > 6.25 µM | – | Fc1cnc2nc1NC1CCC(CC1)OC/C=C\COc1cccc(c1)N2
> 6.25 µM | > 6.25 µM | 0.101 to 1 µM | – | – | C=CC(=O)NC[C@H]1[C@H]2C[C@H]3[C@H]1Nc1nc(ncc1F)Nc1cccc(c1)C(O)CS[C@@H]3C2 (stereo partly shown)
– | – | 1 to 6.25 µM | – | – | NC(=O)[C@H]1C([C@@H](O)CO)CC2C(O)[C@H](O)COc3cccc(c3)Nc3ncc(F)c(n3)N[C@H]21 (stereo partly shown)
– | – | 0.001 to 0.1 µM | 0.001 to 0.1 µM | – | CN1CCN(c2ccc3cc2C(O)CS(=O)(=O)[C@@H]2C[C@@H]4C[C@H]2[C@@H](Nc2nc(ncc2F)N3)[C@H]4C(N)=O)CC1 (stereo partly shown)
– | – | 1 to 6.25 µM | > 6.25 µM | – | CC(=O)N1Cc2cccc(c2)Nc2ncc(F)c(n2)N[C@@H]2[C@@H]3C[C@@H](C[C@H]3C1)[C@@H]2C(=O)O
– | – | 0.101 to 1 µM | 0.101 to 1 µM | – | NC(=O)[C@H]1[C@H]2C[C@H]3[C@H]1Nc1nc(ncc1F)Nc1cccc(c1)CS(=O)(=O)N[C@@H]3C2
> 6.25 µM | > 6.25 µM | 1 to 6.25 µM | – | – | NC[C@H]1[C@H]2C[C@H]3[C@H]1Nc1nc(ncc1F)Nc1cccc(c1)C(O)CS[C@@H]3C2 (stereo partly shown)
– | – | 0.101 to 1 µM | 0.101 to 1 µM | – | Fc1cnc2nc1NC1CCCC(C1)OC/C=C/COc1cccc(c1)N2 (stereo not shown)
1 to 6.25 µM | 1 to 6.25 µM | 0.001 to 0.1 µM | – | – | NC(=O)[C@H]1[C@H]2C[C@H]3[C@H]1Nc1nc(ncc1F)Nc1cccc(c1)[C@H](OCCO)CS[C@@H]3C2
